The source made the active and inactive calls. No cut-off for these calls is given here.

The values that follow come from ChEMBL document CHEMBL3593204, “Discovery of substituted 1,4-dihydroquinolines as novel class of ABCB1 modulators” (Bioorg Med Chem, 2015).

Series [1] addresses T1, ATP-dependent translocase ABCB1 (Homo sapiens, UniProt P08183). The experiment in a line: Inhibition of human ABCB1 expressed in mouse L5178Y cells using rhodamine 123 as substrate assessed as ratio of fluorescent intensity in ABCB1 expressing L5178Y cells to wild type L5178Y cells at 1 uM after 20 mins by flow cytometry. Format: cell-based. A general note: In flow cytometry, cells or beads pass a laser one at a time.

The target of series [2] is T1, ATP-dependent translocase ABCB1. The series is described as follows: Inhibition of human ABCB1 expressed in mouse L5178Y cells using rhodamine 123 as substrate assessed as ratio of fluorescent intensity in ABCB1 expressing L5178Y cells to wild type L5178Y cells at 10 uM after 20 mins by flow cytometry. It is filed as cell-based.
Series [3] deals with L5178Y. The experiment in a line: Cytotoxicity against wild type mouse L5178Y cells after 48 hrs by MTT assay. Format: cell-based.
Series [4] has as its system L5178Y. The series is described as follows: Cytotoxicity against wild type mouse L5178Y cells by MTT assay. Format: cell-based.
In series [5] the test system is L5178Y. The experiment in a line: Cytotoxicity against mouse L5178Y cells expressing human ABCB1 by MTT assay. Format: ADME, cell-based. In general terms: Tetrazolium dyes change colour on reduction, which living cells bring about.
The subject of series [6] is L5178Y. The series is described as follows: Cytotoxicity against mouse L5178Y cells expressing human ABCB1 after 48 hrs by MTT assay. It is filed as ADME, cell-based.
The test system of series [7] is EPG85-257P. The experiment in a line: Induction of ABCB1 expression in human EPG85-257P cells at 10 uM after 72 hrs by Western blot analysis. Format: functional, cell-based. Background: Immunoblotting shows a protein as a band on a membrane.
Series [8] is filed under the species Homo sapiens. The series is described as follows: Induction of ABCB1 expression in human EPG85-257RDB cells at 10 uM after 72 hrs by Western blot analysis. Format: functional, cell-based.
Series [9] concerns EPG85-257P. The experiment in a line: Induction of ABCB1 expression in human EPG85-257P cells at 10 uM after 72 hrs by Western blot analysis in presence of daunorubicin. Format: functional, cell-based.
For series [10], the species on record is Homo sapiens. The experiment in a line: Induction of ABCB1 expression in human EPG85-257RDB cells at 10 uM after 72 hrs by Western blot analysis in presence of daunorubicin. Format: functional, cell-based.
Series [11] concerns A2780cisR. The series is described as follows: Induction of ABCB1/2 expression in human A2780cisR cells at 10 uM after 72 hrs by Western blot analysis. It is filed as functional, cell-based.
Series [12] deals with T1, ATP-dependent translocase ABCB1. The experiment in a line: Ratio of verapamil to compound for inhibition of human ABCB1 expressed in mouse L5178Y cells using rhodamine 123 as substrate assessed as ratio of fluorescent intensity in ABCB1 expressing L5178Y cells to wild type L5178Y cells at 1 to 10 uM after 20 mins by flow cytometry. It is filed as cell-based.

T1 sequence (P08183 whole entry): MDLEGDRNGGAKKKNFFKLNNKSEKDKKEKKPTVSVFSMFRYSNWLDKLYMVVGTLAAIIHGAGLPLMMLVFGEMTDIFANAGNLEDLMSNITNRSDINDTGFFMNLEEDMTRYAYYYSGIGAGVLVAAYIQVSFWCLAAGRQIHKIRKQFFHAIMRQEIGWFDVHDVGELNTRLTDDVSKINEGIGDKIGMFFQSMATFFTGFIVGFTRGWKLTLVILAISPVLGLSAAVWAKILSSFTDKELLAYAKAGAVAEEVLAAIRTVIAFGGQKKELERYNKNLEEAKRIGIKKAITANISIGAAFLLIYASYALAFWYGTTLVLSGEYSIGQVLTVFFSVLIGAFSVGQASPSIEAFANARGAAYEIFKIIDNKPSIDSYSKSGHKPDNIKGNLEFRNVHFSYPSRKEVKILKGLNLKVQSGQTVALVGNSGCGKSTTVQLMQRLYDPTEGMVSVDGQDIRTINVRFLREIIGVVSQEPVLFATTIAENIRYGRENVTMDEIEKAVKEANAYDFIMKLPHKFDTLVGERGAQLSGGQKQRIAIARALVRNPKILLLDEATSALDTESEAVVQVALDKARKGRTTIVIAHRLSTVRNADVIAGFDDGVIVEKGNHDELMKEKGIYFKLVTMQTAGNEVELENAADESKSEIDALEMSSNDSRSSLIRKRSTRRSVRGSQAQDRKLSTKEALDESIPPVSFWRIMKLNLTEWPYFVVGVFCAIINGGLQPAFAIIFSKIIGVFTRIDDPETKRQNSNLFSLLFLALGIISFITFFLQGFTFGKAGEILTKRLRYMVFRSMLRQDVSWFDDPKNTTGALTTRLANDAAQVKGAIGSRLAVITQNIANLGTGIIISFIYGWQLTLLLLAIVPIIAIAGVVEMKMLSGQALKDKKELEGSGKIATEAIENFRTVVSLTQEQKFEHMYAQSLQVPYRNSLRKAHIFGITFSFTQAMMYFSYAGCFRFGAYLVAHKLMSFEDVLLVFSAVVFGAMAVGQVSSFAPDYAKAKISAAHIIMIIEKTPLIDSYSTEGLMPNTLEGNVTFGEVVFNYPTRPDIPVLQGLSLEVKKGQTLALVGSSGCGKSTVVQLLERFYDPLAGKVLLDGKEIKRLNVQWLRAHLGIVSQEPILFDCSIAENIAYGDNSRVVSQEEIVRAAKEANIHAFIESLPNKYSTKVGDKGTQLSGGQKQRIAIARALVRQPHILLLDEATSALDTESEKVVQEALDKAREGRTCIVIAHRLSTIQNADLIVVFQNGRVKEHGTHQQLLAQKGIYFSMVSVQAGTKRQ

Take `CCOC(=O)C1=CN(Cc2ccc(OC)cc2)c2ccccc2C1c1ccc(OC)c(OC)c1` (stereo not drawn): the Ratio was 2.41 in [1] and 15.84 in [2].

On to `CCOC(=O)C1=CN(Cc2ccc(OC)cc2)c2ccccc2C1c1cccc(OC)c1` (stereo not drawn), for which the Ratio in [1] was 2.03; in series [2], 10.34.

For the compound `CCOC(=O)C1=CN(Cc2ccccc2)c2ccccc2C1c1ccccc1` (stereo not drawn), the Ratio in series [1] is 1.48; in series [2], 4.72.

Turning to `CCOC(=O)C1=CN(Cc2cccc(OC)c2)c2ccccc2C1c1ccc(OC)c(OC)c1` (stereo not drawn), the Ratio in series [1] came out at 2.98; in series [2], 15.86. Further, the Activity entry in [3] and in series [6] was “Non-toxic” each time. In addition, the IC50 in [4] and in series [5] was more than 160 µM in each case. Also, the outcome in [7], in [8], in series [9], in series [10] and in series [11] was inactive.

In the case of `CCOC(=O)C1=CN(Cc2ccc(OC)cc2)c2ccccc2C1c1cc(OC)cc(OC)c1` (stereo not drawn), the Ratio in series [1] is given as 3.63; in series [2], 13.36.

With `CCOC(=O)C1=CN(Cc2ccccc2)c2ccccc2C1c1ccc(OC)c(OC)c1` (stereo not drawn), the Ratio in [1] was determined as 3.42; in series [2], 12.77; in [12], 2.5. In addition, the Activity result in series [3] and in series [6] was “Non-toxic” throughout. Besides, the IC50 in series [4] and in series [5] was more than 160 µM throughout.

Turning to `CCOC(=O)C1=CN(Cc2ccc(OC)cc2)c2ccccc2C1c1ccc(OC)cc1` (stereo not drawn), the Ratio was 2.55 in series [1] and 13.66 in [2].

For the compound `CCOC(=O)C1=CN(Cc2ccccc2)c2ccccc2C1c1cc(OC)cc(OC)c1` (stereo not drawn), the Ratio in series [1] is 2.96; in series [2], 10.5.

For the compound `CCOC(=O)C1=CN(Cc2cccc(OC)c2)c2ccccc2C1c1cccc(OC)c1` (stereo not drawn), the Ratio in [1] is 2.26; in series [2] it was 9.68.

Regarding `CCOC(=O)C1=CN(Cc2cccc(OC)c2)c2ccccc2C1c1cc(OC)cc(OC)c1` (stereo not drawn), the results for the Ratio in series [1] and in series [2] were 2.71 and 13.11, respectively.

For the compound `CCOC(=O)C1=CN(Cc2cccc(OC)c2)c2ccccc2C1c1ccc(OC)cc1` (stereo not drawn), the Ratio in series [1] was 2.23; in [2], 9.95.

On to `COc1ccc(CCN(C)CCCC(C#N)(c2ccc(OC)c(OC)c2)C(C)C)cc1OC` (stereo not drawn) [VERAPAMIL], for which the figures for the Ratio in series [1] and in series [2] were 1.46 and 4.98, respectively.
